Common to all, as to assay: DTP human tumour cell line panel, 48 h
Test [1] has as its system RXF 631.
Test [2] concerns DMS-273.
Test [3] has as its system KM-20L2.
Test [4] has as its system DMS-114.
Test [5] has as its system HOP-18.
Test [6] has as its system DLD-1.
The test system of test [7] is M19-MEL.
The subject of test [8] is SNB-78.
For test [9], the system named is XF498.

SMILES strings stand for the structures.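 Tested at 5 concentrations; 48 h exposure; 96-well plates; endpoints linearly interpolated, else capped at highest concentration. Abbreviation: GI50, concentration required for 50% inhibition of growth.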 Calls of active or inactive are those of the source. No stated cut-off is given here; in the data, active = GI50 up to about 1.1 µM and inactive = higher.

Broadly, the GI50 is the concentration that inhibits growth by half.

Regarding `O=C(/C=C1\Nc2ccccc2C(=O)N1c1ccccc1Cl)c1ccccc1`, the GI50 was > 100 µM (inactive) in [1]; > 100 µM (inactive) in test [2]; > 100 µM (inactive) in [3]; 86.3 µM (inactive) in test [4]; > 100 µM (inactive) in [5]; > 100 µM (inactive) in test [6]. Also, the GI50 in [7] and in test [8] was > 100 µM (inactive) each time.

Take `CCNc1nc2c(=O)n(C)c(=O)n(C)c2s1`: the GI50 in test [9], in test [3], in test [5], in test [6], in test [7] and in test [8] was > 100 µM (inactive) throughout.

Take `O=C(/C=C/c1ccc(OCCCOc2ccc(/C=C/C(=O)c3ccc(Cl)cc3)cc2)cc1)c1ccc(Cl)cc1`: the GI50 was > 100 µM (inactive) in [2]; > 100 µM (inactive) in test [9]; > 100 µM (inactive) in test [3]; > 100 µM (inactive) in test [4]; 5.42 µM (inactive) in test [5]; > 100 µM (inactive) in [6]. Besides, the GI50 in test [7] and in test [8] was > 100 µM (inactive) throughout.

On to `CC1CCC2(OC1)OC1CC3C4CCC5CC(O)CCC5(C)C4CC(=O)OC3(C)C1C2C` (configuration not stated), for which the GI50 in [2], in test [3], in test [4], in test [5], in [6] and in test [7] was > 100 µM (inactive) in each case. Moreover, the GI50 in [8] is > 100 µM (inactive).

For `CC1=CC(=O)N(c2c(C)cccc2Cl)C(C)N1` (configuration not stated), the GI50 in [1], in test [2], in test [3], in test [4], in test [5] and in [6] was > 100 µM (inactive) in each case. In addition, the GI50 in test [7] and in test [8] was > 100 µM (inactive) throughout.

For `C=C1C=CC2(Br)OC3CC(C)(Cl)C(Br)CC13C2(C)C` (configuration not stated), the GI50 in [1] is 23 µM (inactive); in [2], 35.8 µM (inactive); in test [9] it was 13.3 µM (inactive); in [3] it was 21.9 µM (inactive); in [4], 17.2 µM (inactive); in test [6] it was 31.6 µM (inactive). The figures for the GI50 in [7] and in test [8] were 21.5 µM (inactive) and 22.4 µM (inactive), respectively.

Consider `CCOC1c2cc(OC)c(OC)cc2-c2ccc3ccccc3c2N1C` (configuration not stated), for which the GI50 in test [1] was 22.9 µM (inactive); in [2], 6.46 µM (inactive); in test [9], 14.8 µM (inactive); in [3] it was 15.3 µM (inactive); in test [4], 9.35 µM (inactive); in test [5] it was 42.4 µM (inactive). Besides, the GI50 in [6] was 25.5 µM (inactive); in test [7] it was 11.2 µM (inactive); in test [8], 33.6 µM (inactive).

On to `COc1cc(C(O)C(=O)c2nc3ccc([N+](=O)[O-])cc3nc2O)ccc1O` (configuration not stated), for which the GI50 in [2] is 83.9 µM (inactive); in test [9], > 100 µM (inactive); in test [3] it was 69.7 µM (inactive); in test [4] it was 66.8 µM (inactive); in test [6] it was > 100 µM (inactive); in test [7] it was > 100 µM (inactive). Moreover, the GI50 in [8] is > 100 µM (inactive).

As to `Cc1ccc(C)c(NC(=O)/C(=N\NC(N)=S)C(C#N)c2ccccc2)c1` (configuration not stated), the GI50 in [2], in test [9], in [3], in test [4], in [5] and in test [6] was > 100 µM (inactive) throughout. Besides, the GI50 in test [7] was > 100 µM (inactive).

On to `O=C(c1ccccc1)C(c1ccccc1)C1(O)C(=O)Nc2ccc([N+](=O)[O-])cc21` (configuration not stated), for which the GI50 in [1] was > 100 µM (inactive); in [9] it was > 100 µM (inactive); in test [3], > 100 µM (inactive); in test [4], 19.8 µM (inactive); in [6] it was > 100 µM (inactive); in [7], 26.9 µM (inactive). The GI50 in test [8] was > 100 µM (inactive).

For `COc1cccc(NC(=O)C(C)(C)C)c1C=O`, the GI50 in [1] is 81.3 µM (inactive); in [9], 7.38 µM (inactive); in [3] it was 43.8 µM (inactive); in test [4], 34.6 µM (inactive); in test [5], 91 µM (inactive); in test [6] it was 51.9 µM (inactive). In addition, the GI50 was 59.3 µM (inactive) in test [7] and 51.2 µM (inactive) in test [8].

Consider `O=C(Nc1cc(Cl)c(Cl)cc1Cl)C(=O)C1C(=O)NC(=S)NC1=O`, for which the GI50 in [1], in [2], in [9], in test [3], in test [4] and in test [5] was > 100 µM (inactive) each time. Further, the GI50 in [6], in [7] and in test [8] was > 100 µM (inactive) throughout.

As to `COC(=O)C12C3C4C1C1C2C3C41C(=O)N(C(C)C)C(C)C` (configuration not stated), the GI50 in [2], in test [3], in test [4], in [6], in test [7] and in [8] was > 100 µM (inactive) throughout.

On to `[N-]=[N+]=N/C1=C/CCCCC(=O)C1`, for which the GI50 in test [2], in [9], in test [3], in [4], in [6] and in test [7] was > 100 µM (inactive) throughout. Besides, the GI50 in [8] was > 100 µM (inactive).

Turning to `[O-][n+]1c2cc3c(cc2[n+]([O-])c2c(O)cccc21)CN(CCN1CCOCC1)C3`, the GI50 in test [1] is > 100 µM (inactive); in test [2], 53.6 µM (inactive); in [9], 12.5 µM (inactive); in [3], 35.4 µM (inactive); in test [4], 8.41 µM (inactive); in [5] it was > 100 µM (inactive). Also, the values for the GI50 in test [7] and in test [8] were 14.5 µM (inactive) and 32.4 µM (inactive), respectively.

Regarding `O=[N+]([O-])c1cc(C(F)(F)F)cc([N+](=O)[O-])c1CCl`, the GI50 in test [1] is 2.8 µM (inactive); in test [2], 1.23 µM (inactive); in [9] it was 8.97 µM (inactive); in [3], 3.98 µM (inactive); in test [4], 0.52 µM (active); in [5], 1.93 µM (inactive). The GI50 was 1.83 µM (inactive) in test [6], 1.57 µM (inactive) in test [7] and 4.69 µM (inactive) in test [8].

As to `O=C(CC(C(=O)c1ccsc1)c1cccs1)c1cccs1` (configuration not stated), the GI50 in test [2] was 84.5 µM (inactive); in [9] it was 70.1 µM (inactive); in [3], > 100 µM (inactive); in test [4], 41.9 µM (inactive); in [6], > 100 µM (inactive); in test [7], 96.2 µM (inactive). Further, the GI50 in test [8] was > 100 µM (inactive).

On to `O=C(CC1(O)C(=O)Nc2ccc([N+](=O)[O-])cc21)c1ccc(Br)cc1` (configuration not stated), for which the GI50 in test [9] was 32.3 µM (inactive); in [3], > 100 µM (inactive); in test [4] it was 32.1 µM (inactive); in [5], > 100 µM (inactive); in [6], 45.3 µM (inactive); in test [7] it was 19.5 µM (inactive). The GI50 in test [8] was 23.2 µM (inactive).

Turning to `COC(OC)C(C)CC(=O)N(C)C` (configuration not stated), the GI50 in test [2], in test [9], in test [3], in [4], in test [6] and in test [7] was > 100 µM (inactive) each time. In addition, the GI50 in test [8] is > 100 µM (inactive).

Regarding `NC1=NC(=O)C(CC(=O)Nc2ccc(Cl)cc2Cl)S1` (configuration not stated), the GI50 in test [2], in test [9], in test [3], in test [6], in [7] and in [8] was > 100 µM (inactive) throughout.

In the case of `CC(=O)O[C@H]1C=CC23OC(=O)[C@]1(C)[C@H]2[C@H](C(=O)O)C12CC(=O)[C@@](CO)(CC[C@H]13)C2`, the GI50 in [1], in test [2], in test [9], in test [3], in test [5] and in [6] was > 100 µM (inactive) throughout. Moreover, the GI50 in test [7] and in [8] was > 100 µM (inactive) in each case.

For the compound `CCOC(=O)C1C=C2O[C@@H]3OC4(CCCCC4)O[C@@H]3C2C2C(=O)CCC(=O)[C@@]12C(=O)OC` (some centres not stated), the GI50 in [1], in test [2], in test [9], in test [3], in test [4] and in test [5] was > 100 µM (inactive) throughout. The GI50 in [6], in [7] and in test [8] was > 100 µM (inactive) in each case.

Take `COc1cc2c(c(OC)c1OC)-c1ccc(SC)c(=O)cc1[C@@H](NCc1ccccc1[N+](=O)[O-])CC2`: the GI50 in test [1] is 0.01 µM (active); in test [2] it was 0.004 µM (active); in test [9], 0.0176 µM (active); in [3], 0.00314 µM (active); in [4] it was 0.00796 µM (active); in test [6] it was 0.00762 µM (active). For the same compound, the GI50 in test [7] is 0.004 µM (active); in test [8] it was 0.00682 µM (active).

On to `O=C1NC2(CCCCC2)C(=O)N1CCN(CCCl)CCCl` [SPIROMUSTINE], for which the GI50 is 71.6 µM (inactive) in test [2]; 28.8 µM (inactive) in test [9]; > 194 µM (inactive) in test [3]; 88.7 µM (inactive) in [4]; 236 µM (inactive) in [5]; 164 µM (inactive) in test [6]. For the same compound, the GI50 was 228 µM (inactive) in test [7] and 148 µM (inactive) in test [8].

(Values after ChEMBL document CHEMBL1201862, “PubChem BioAssay data set” (2004).)
